According to patent publication US10689459B2, “Treatment of breast cancer brain metastases” (THE GENERAL HOSPITAL CORPORATION, priority 2014, dated 2020):

Experiments:
[1] = system: HER2- or PI3K-driven breast tumors growing in the MFP (BT474, MDA-MB-361, T-47D); assay: Mammary fat pad (MFP) xenograft tumor growth; assay type: in vivo, nude mice; details: COMPOUND A 30 or 50 mg/kg once a day p.o.; FIG. 1A
Text: (§1) 5-(2,6-di-morpholin-4-yl-pyrimidin-4-yl)-4-trifluoromethyl-pyridin-2-ylamine (referred to herein as “COMPOUND A”) is a potent and specific pan-Class I PI3K inhibitor with activity against breast cancer cells bearing HER2-amplification as well as oncogenic PI3K catalytic subunit alpha (PIK3CA) mutations. We compared the efficacy of COMPOUND A on identical human HER2-positive breast cancer cells growing in the MFP or in the brain parenchyma of nude mice. The three breast cancer cell lines examined included HER2-amplified BT474, HER2-amplified and PIK3CA mutant (E545K) MDA-MB-361, and PIK3CA mutant (H1047R) T-47D cell lines. […] Furthermore, the concentration of COMPOUND A in breast tumors growing at both sites, as well as in the plasma of these mice was identical.
(§2) BT474, MDA-MB-361, and T-47D cells were transduced with an expression cassette encoding Gluc and GFP separated by an internal ribosomal entry site, using a lentiviral vector. GFP-positive cells were sorted with a FACSAria cell sorter (BD Biosciences). […]
(§3) Tumor size was measured twice a week by measuring the activity of secreted Gluc in the blood. […] Blood was transferred to an opaque 96-well plate, and Gluc activity was measured using coelenterazine (CTZ; Nanolight) as a substrate and a plate luminometer (Centro XS LB960; Berthold Technologies). […]

[2] = system: human breast cancer cells growing in the brain parenchyma (BT474, MDA-MB-361, T-47D); assay: Brain metastatic xenograft tumor growth (three cell lines, Example 1); assay type: in vivo, nude mice; details: COMPOUND A 30 or 50 mg/kg once a day p.o.; FIG. 1B
Text: as §1, §2, §3

p-AKT = p-AKT inhibition in tumor tissue (BM versus MFP tumors); assay type: in vivo, nude mice; details: tumor tissue collected two hours after the final dose
Text: as §1

[3] = Compound A concentration measurement in tumor and plasma (LC-MS/MS); assay type: in vivo, nude mice; details: tumor lysate by LC-MS/MS; comparison between sites
Description: Tumor samples were collected, weighed and lysed in Lysing Matrix D tube (MP Biomedicals) in RIPA buffer (Cell Signaling Technologies (CST)) at fixed weight/volume ratio. The samples were centrifuged at 13,000 rpm and 4° C. in Micro centrifuge for 10 min. Supernatant was collected from the lysate and stored at −80° C. The COMPOUND A concentration in tumor lysate was analyzed by LC-MS/MS at Inventiv Health Clinical Lab, Inc. It was then normalized by tumor weight-lysis buffer ratio to yield COMPOUND A exposure (ng/mL) in tumor tissue.

BT474-Gluc-BR cells = assay: In vitro sensitivity of cancer cells isolated from a brain metastatic tumor; assay type: cell-based, human; details: BT474-Gluc-BR cultured for a week in vitro
Text: We began our investigation into the resistance of breast cancer BM to PI3K inhibition by asking if breast cancer cells require constant influence from the brain microenvironment. We isolated breast cancer cells after dissociation of a brain metastatic tumor (termed BT474-Gluc-BR). After cultured for a week in vitro, the vast majority of viable cells were cancer cells, as identified by GFP. […] Instead, breast cancer cells must receive continuous support from the brain microenvironment in order to maintain resistance. […]
The xCELLigence system (Acea Biosciences Inc.) was used to assess the cell index of T-47D, BT474 and MDA-MB-361 cells. xCELLigence measures electrical impedance across micro-electrodes integrated at the bottom of tissue culture E-plates to provide quantitative information about the biological status of cells, including cell number, morphology and viability. […] Cells were monitored every 15 m for a period of up to 24 h via the incorporated sensor electrode arrays of the E-Plate 96. […] Electric impedance was measured in 1 h intervals after addition of drug until the end of the experiment. Cell index value, which is a dimensionless parameter derived as a relative change in measured electrical impedance to represent numbers of attached cells, was calculated from the electric impedance and plotted using the RTCA software provided by the vendor. […]

[4] = system: three HER2-positive breast cancer cell lines; assay: Resistance analysis of secreted growth factors (CellTiter-Glo rescue); assay type: cell-based, human; details: unbiased analysis of 220 growth factors; 96 h incubation
Text: A collection of cDNA constructs representing secreted and single pass transmembrane proteins was identified (as described previously described^56) and purchased from Invitrogen Ultimate ORF collection. (The library is maintained by DMP BioArchive.) pCDNA-DEST40 (Invitrogen) was the plasmid vector for all clones, and all clone inserts were confirmed by full sequencing. For this study a collection of 338 cDNA constructs, representing 220 unique secreted and single pass transmembrane proteins, was used to identify rescued ligands in the present of each compound treatment—each cDNA construct was reverse-transfected using HEK293T/17. […] CellTiter-Glo assay was then used for conducting end-point read out. Following plate to plate normalization of the raw CTG reading for triplicates, the rescue % value for each secreted protein was calculated using the following formula: Rescue %=[Median (drug+supe)−Median (drug)]/[Median (DMSO)−Median (drug)]. The statistical probability score of the Rescue % value was also calculated: p-value=Chidist [Z(drug+supe)^2, 1], where Z(drug+supe)=[Median (drug+supe)−Median (drug)]/Std(drug+supe), where drug+supe stands for the individual sample that were treated with individual supernatant that was expected to contain one unique secreted protein. […]

Molecule | tumor response to treatment, tumors growing in the MFP [1] | tumor response to treatment, established brain metastatic lesions [2] | level of p-AKT inhibition in BM compared with MFP tumors (p-AKT) | concentration in breast tumors growing at both sites (MFP, brain) and in plasma [3] | in vitro sensitivity of brain microenvironment-exposed cells versus parental cells (BT474-Gluc-BR cells) | induction of resistance to COMPOUND A [4]
Nc1cc(C(F)(F)F)c(-c2cc(N3CCOCC3)nc(N3CCOCC3)n2)cn1 [COMPOUND A, 5-(2,6-di-morpholin-4-yl-pyrimidin-4-yl)-4-trifluoromethyl-pyridin-2-ylamine] | regression | resistant to treatment | comparable level of p-AKT inhibition | identical | similarly sensitive | –
NRG-1: neuregulin 1, HER3 ligand; secreted growth factor (protein) TSHLVKCAEKEKTFCVNGGECFMVKDLSNPSRYLCKCPNEFTGDRCQNYVMASFYKHLGIEFMEAEELYQK | – | – | – | – | – | most potent inducers of resistance
